The values that follow come from paper PMC5896373 (Molecular Pharmacology, 2018).

The subject of test [1] is P2X7R left flipper point mutant D280A. Put plainly: Two-electrode voltage clamp of ATP-evoked currents in Xenopus oocytes. The test is classed as cell-based, human. (Two-electrode voltage clamp is typically applied to oocytes expressing channels or transporters.)
Protocol: (§1) The production of the correct mutations and absence of coding errors was determined by DNA sequencing (Automated ABI Sequencing Service, University of Leicester, UK). cRNA was generated for the mutants and 50 nl (50 ng) was injected into manually defoliculated stage V Xenopus laevis oocytes using an Inject+Matic microinjector (J.A. Gabay, Inject+Matic, Geneva, Switzerland). Injected oocytes were stored at 16°C in ND96 buffer [in millimolar concentrations, NaCl 96, KCl 2, CaCl2 1.8, MgCl2 1, sodium pyruvate 5, and HEPES 5 (pH 7.6) supplemented with 50 μg/ml gentamycin and 50 μg/ml tetracycline]. Three to seven days postinjection two-electrode voltage clamp recordings were made from oocytes bathed in divalent-free ND96 buffer (in millimolar concentrations, NaCl 96, KCl 2, sodium pyruvate 5, HEPES 5, and 0.1 flufenamic acid, pH 7.6). Oocytes were voltage clamped at a holding potential of −60 mV with a GeneClamp500B amplifier (Molecular Devices).
(§2) Inhibition by the antagonists was expressed as the percentage of the peak current amplitude of an EC90 concentration of ATP recorded before the application of antagonist (ATP gave reproducible responses to ATP in the absence of antagonist). Inhibition curves were fitted with the Hill equation (variable slope) using GraphPad Prism 6 (GraphPad Software, San Diego, CA). […]
Test [2] has as its system P2X7R left flipper point mutant K281A. The description is as above. The class given is cell-based, human.
Protocol: (§3) Injected oocytes were stored at 16°C in ND96 buffer [in millimolar concentrations, NaCl 96, KCl 2, CaCl2 1.8, MgCl2 1, sodium pyruvate 5, and HEPES 5 (pH 7.6) supplemented with 50 μg/ml gentamycin and 50 μg/ml tetracycline]. Three to seven days postinjection two-electrode voltage clamp recordings were made from oocytes bathed in divalent-free ND96 buffer (in millimolar concentrations, NaCl 96, KCl 2, sodium pyruvate 5, HEPES 5, and 0.1 flufenamic acid, pH 7.6). Oocytes were voltage clamped at a holding potential of −60 mV with a GeneClamp500B amplifier (Molecular Devices).
(§4) Electrophysiological traces were digitized with a Digidata 1322A and collected using pCLAMP 8.2 software (Molecular Devices, Menlo Park, CA). An EC90 concentration of ATP was used to test antagonist sensitivity for the P2X7-2Nβ and mutant receptors [ATP sensitivity of the chimeras and mutants are reported in [Allsopp et al. (2017)]] to standardize for any changes in ATP sensitivity.
(§5) Inhibition by the antagonists was expressed as the percentage of the peak current amplitude of an EC90 concentration of ATP recorded before the application of antagonist (ATP gave reproducible responses to ATP in the absence of antagonist). […] Any significant differences from the P2X7-2Nβ control were calculated by one-way analysis of variance, followed by Dunnett’s test (using GraphPad Prism 6). […]
The subject of test [3] is P2X7R left flipper point mutant T282A. The test is described as above. The class given is cell-based, human.
Protocol: as §1, §2
The test system of test [4] is P2X7R left flipper point mutant T283A. The test is described as above. The class given is cell-based, human.
Protocol: as §3, §4, §5
Test [5] relates to P2X7R left flipper point mutant N284A. The description is as above. The test is classed as cell-based, human.
Protocol: as §1, §2
In the next test the target is T1, P2X7R point mutant R206A (Homo sapiens, UniProt Q99572, I21V/M24R/N16P/N25R/Q22R/R206A/R20V/S23N/T19I/Y26L).
T1 construct: expressed in transfected cells; host or cells: Xenopus laevis oocytes (cRNA injection)
T1 sequence (Q99572 whole entry N16P/T19I/R20V/I21V/Q22R/S23N/M24R/N25R/Y26L/R206A): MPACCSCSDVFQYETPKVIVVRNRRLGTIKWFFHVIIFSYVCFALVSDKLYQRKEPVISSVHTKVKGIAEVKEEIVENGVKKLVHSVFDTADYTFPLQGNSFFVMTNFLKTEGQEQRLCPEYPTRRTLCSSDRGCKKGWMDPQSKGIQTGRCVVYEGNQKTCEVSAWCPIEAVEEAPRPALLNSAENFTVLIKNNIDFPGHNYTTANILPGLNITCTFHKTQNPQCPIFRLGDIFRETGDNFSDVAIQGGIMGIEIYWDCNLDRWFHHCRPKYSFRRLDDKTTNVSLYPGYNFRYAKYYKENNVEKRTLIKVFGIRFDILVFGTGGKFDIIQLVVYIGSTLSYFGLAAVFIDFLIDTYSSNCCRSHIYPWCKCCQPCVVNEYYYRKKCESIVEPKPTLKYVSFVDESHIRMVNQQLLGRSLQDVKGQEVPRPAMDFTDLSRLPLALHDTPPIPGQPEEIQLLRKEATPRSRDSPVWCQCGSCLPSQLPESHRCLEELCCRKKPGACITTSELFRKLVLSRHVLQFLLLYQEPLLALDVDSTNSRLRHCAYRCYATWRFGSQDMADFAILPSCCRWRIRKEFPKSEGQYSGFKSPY
Described as above. The class given is cell-based. The note with it: mean ± S.E.M.

For the next test, the target named is T2, P2X7R point mutant K193A (Homo sapiens, UniProt Q99572, I21V/K193A/M24R/N16P/N25R/Q22R/R20V/S23N/T19I/Y26L).
T2 construct: expressed in transfected cells; host or cells: Xenopus laevis oocytes (cRNA injection)
T2 sequence (Q99572 whole entry N16P/T19I/R20V/I21V/Q22R/S23N/M24R/N25R/Y26L/K193A): as the sequence (Q99572 whole entry N16P/T19I/R20V/I21V/Q22R/S23N/M24R/N25R/Y26L/R206A) above, with K193A, A206R counted along it
The description is as above. The test is classed as cell-based.

Test [6] concerns the target T3, chimeric P2X7R with left flipper 280–284 of P2X4 (Homo sapiens, UniProt Q99572, D280T/I21V/K281R/M24R/N16P/N25R/N284E/Q22R/R20V/S23N/T19I/T282D/T283V/Y26L).
T3 sequence (Q99572 1-595 N16P/T19I/R20V/I21V/Q22R/S23N/M24R/N25R/Y26L/D280T/K281R/T282D/T283V/N284E): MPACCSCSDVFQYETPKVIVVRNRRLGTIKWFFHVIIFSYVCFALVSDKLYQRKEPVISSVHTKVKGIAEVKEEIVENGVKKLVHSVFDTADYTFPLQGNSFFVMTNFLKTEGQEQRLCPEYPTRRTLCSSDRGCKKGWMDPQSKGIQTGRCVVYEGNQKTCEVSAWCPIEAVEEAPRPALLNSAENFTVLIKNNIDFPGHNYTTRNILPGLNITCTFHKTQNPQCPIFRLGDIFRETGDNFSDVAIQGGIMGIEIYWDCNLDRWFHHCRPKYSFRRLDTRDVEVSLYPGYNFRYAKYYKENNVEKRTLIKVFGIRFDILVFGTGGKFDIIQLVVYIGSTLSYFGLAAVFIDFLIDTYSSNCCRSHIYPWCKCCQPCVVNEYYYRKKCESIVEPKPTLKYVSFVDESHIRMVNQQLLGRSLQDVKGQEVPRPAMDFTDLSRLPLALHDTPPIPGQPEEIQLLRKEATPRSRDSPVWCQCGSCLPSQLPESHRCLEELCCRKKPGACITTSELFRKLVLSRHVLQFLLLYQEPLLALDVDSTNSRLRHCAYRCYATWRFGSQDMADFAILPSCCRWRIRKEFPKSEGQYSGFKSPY
The note with it: chimera 280–284 of P2X4.
Protocol: as §1
Inhibition by the antagonists was expressed as the percentage of the peak current amplitude of an EC90 concentration of ATP recorded before the application of antagonist (ATP gave reproducible responses to ATP in the absence of antagonist). Inhibition curves were fitted with the Hill equation (variable slope) using GraphPad Prism 6 (GraphPad Software, San Diego, CA). […] Individual concentration-response curves were generated for individual experiments, and statistical analysis was carried out on the data generated. […] Data are shown as mean ± S.E.M. In all cases n ≥ 3 for all data points.

Test [7] concerns the target T4, chimeric P2X7/1 receptor 279–285 (left flipper) (Homo sapiens, UniProt Q99572, DEL279-281/I21V/M24R/N16P/N25R/N284E/Q22R/R20V/S23N/T19I/T282Y/T283E/V285K/Y26L).
T4 construct: expressed in transfected cells; host or cells: Xenopus laevis oocytes (cRNA injection)
T4 sequence (Q99572 with tags, fused parts or gaps N16P/T19I/R20V/I21V/Q22R/S23N/M24R/N25R/Y26L/DEL279-281/T282Y/T283E/N284E/V285K): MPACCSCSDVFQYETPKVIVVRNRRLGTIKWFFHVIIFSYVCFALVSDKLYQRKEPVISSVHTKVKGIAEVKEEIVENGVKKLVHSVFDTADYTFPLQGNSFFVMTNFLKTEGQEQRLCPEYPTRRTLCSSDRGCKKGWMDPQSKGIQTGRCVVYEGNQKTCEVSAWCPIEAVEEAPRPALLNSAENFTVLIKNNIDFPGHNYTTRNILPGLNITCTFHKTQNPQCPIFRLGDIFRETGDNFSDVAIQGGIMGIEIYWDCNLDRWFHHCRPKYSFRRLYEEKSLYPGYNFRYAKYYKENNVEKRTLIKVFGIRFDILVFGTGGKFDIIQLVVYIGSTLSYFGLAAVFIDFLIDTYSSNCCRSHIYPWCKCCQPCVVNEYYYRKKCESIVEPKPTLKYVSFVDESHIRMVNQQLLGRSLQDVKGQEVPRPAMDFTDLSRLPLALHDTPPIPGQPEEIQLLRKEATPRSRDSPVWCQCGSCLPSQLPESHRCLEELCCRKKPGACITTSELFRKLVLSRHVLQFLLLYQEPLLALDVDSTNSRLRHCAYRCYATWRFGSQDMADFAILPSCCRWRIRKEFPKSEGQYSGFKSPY
Also noted: method as in Allsopp et al., 2017. The note with it: chimera 279–285; ref Allsopp et al., 2017; cited from earlier work.

In a further test the test system is P2X7R. Also noted: method as in North, 2002; Kaczmarek-Hajek et al., 2012. The note with it: physiologic concentrations of calcium and magnesium; ref North, 2002; Kaczmarek-Hajek et al., 2012; cited from earlier work.
The test system of another test is other P2XR subtypes. Also noted: method as in North, 2002; Kaczmarek-Hajek et al., 2012. The note with it: ref North, 2002, Kaczmarek-Hajek et al., 2012; cited from earlier work.

Structures are written as SMILES. pEC50: −log10 of the molar value.

Protocol for P2X7R point mutant K193A: as §3, §4, §5
Protocol for P2X7R point mutant R206A: as §3, §4, §5

On to `Nc1ncnc2c1ncn2[C@@H]1O[C@H](COP(=O)(O)OP(=O)(O)OP(=O)(O)O)[C@@H](O)[C@H]1O` [ATP], for which the “fold increase in ATP potency” value in test [1] is given as 15 fold. Further, the “fold decrease in ATP sensitivity” value came to 2 fold in test [2] and 3.4 fold in test [4]. Besides, the “effect on ATP sensitivity” value in test [3] and in test [5] was “no effect” each time. Besides, the “ATP sensitivity pEC50” value on P2X7R point mutant R206A came out at 4.33 ± 0.06. Also, at P2X7R point mutant K193A, the “amplitude of ATP-evoked responses” value is on record as less than 100 nA. Further, the “fold increase in ATP sensitivity/potency” value in test [6] is approximately 15 fold. In addition, the “fold increase in sensitivity to ATP” value in test [7] was approximately 30 fold. Also, the negative-log EC50 (pEC50) was 3.00 to 3.52 in the test with P2X7R and 4.52 to 6.00 with other P2XR subtypes.

As usually defined, the pEC50 is the EC50 on a negative log10 scale, so that one unit is a factor of ten.
